Assay results: ChEMBL document CHEMBL4680110 (2018)
Activity calls are given as the source filed them. Peptide text beside a SMILES is read from it. * marks the point of attachment. Bz = O=C(c1ccccc1)*

How the values were obtained:
Neuron = test: Inhibition of TTX-sensitive sodium channel in Sprague-Dawley rat DRG neuron at 10 uM at -10 mV holding potential by whole cell patch clamp technique; format: tissue-based
Rattus norvegicus [1] = test: Analgesic activity in Sprague-Dawley rat model of PNL injury-induced neuropathic pain assessed as pain threshold elevation percentage at 1.5 nmol/kg, IM administered as single dose measured after 2 to 2.5 hrs post dose; format: functional; details: time 2-2.5 hrs
Rattus norvegicus [2] = test: Analgesic activity in Sprague-Dawley rat model of PNL injury-induced neuropathic pain assessed as pain threshold elevation percentage at 15 nmol/kg, IM administered as single dose measured after 2 to 2.5 hrs post dose; format: functional; details: time 2-2.5 hrs
GABA-B receptor = GABA-B receptor (Homo sapiens, UniProt O75899+Q9UBS5); test: Activation of human GABAB1/GABAB2 expressed in HEK293 cells co-transfected with rat CaV2.2 channel assessed as reduction in CaV2.2-mediated peak-current amplitude in response to the depolarizing pulse by whole cell patch clamp assay; format: cell-based, HEK293T
[3] = Selectivity index, ratio of IC50 for inhibition of human alpha9alpha10 nAChR expressed in Xenopus laevis oocytes to IC50 for activation of human GABAB1/GABAB2 expressed in HEK293 cells co-transfected with rat CaV2.2 channel assessed as reduction in CaV2.2-mediated peak-current amplitude; format: cell-based
[4] = molecular target: Nicotinic acetylcholine receptor alpha9/alpha10 (Rattus norvegicus, UniProt P43144+Q9JLB5); test: Inhibition of rat alpha9alpha10 nAChR expressed in Xenopus laevis oocytes assessed as inhibition of Ach-induced response at -80 mV holding potential preincubated for 5 mins followed by Ach stimulation by two electrode voltage-clamp assay; format: cell-based, Oocyte
Rattus norvegicus [5] = test: Analgesic activity in Sprague-Dawley rat model of chronic constriction injury-induced neuropathic pain assessed as increase in pain threshold elevation percentage at 0.3 to 15 nmol/kg, IM administered as single dose measured after 2 to 2.5 hrs post dose; format: functional, organism-based; details: dose 0.3-15 nmol/kg, time 2-2.5 hrs
[6] = molecular target: T1, GABA-B receptor (Homo sapiens) (UniProt Q9UBS5+O75899); test: Activation of human GABAB1/GABAB2 expressed in HEK293 cells co-transfected with rat CaV2.2 channel assessed as reduction in CaV2.2-mediated Ba2+ peak-current amplitude in response to depolarizing pulse in presence of 1 uM GABAB receptor antagonist CGP55845 by whole cell patch clamp assay; format: cell-based; details: HEK293T, time 6.0 hrs
[7] = molecular target: T1, GABA-B receptor (Homo sapiens); test: Activation of human GABAB1/GABAB2 expressed in HEK293 cells co-transfected with rat CaV2.2 channel assessed as reduction in CaV2.2-mediated peak-current amplitude in response to depolarizing pulse at 1 nM by whole cell patch clamp assay relative to control; format: cell-based; details: HEK293T
[8] = Selectivity index, ratio of IC50 for inhibition of rat alpha9alpha10 nAChR expressed in Xenopus laevis oocytes to IC50 for activation of human GABAB1/GABAB2 expressed in HEK293 cells co-transfected with rat CaV2.2 channel assessed as reduction in CaV2.2-mediated peak Ba2+ current amplitude; format: cell-based
Rattus norvegicus [9] = species on record: Rattus norvegicus; test: Inhibition of TTX-resistant sodium channel in Sprague-Dawley rat DRG neuron at 10 uM at 10 mV holding potential by whole cell patch clamp technique
[10] = molecular target: Neuronal acetylcholine receptor; alpha9/alpha10 (Homo sapiens, UniProt Q9GZZ6+Q9UGM1); test: Inhibition of human alpha9alpha10 nAChR expressed in Xenopus laevis oocytes assessed as inhibition of Ach-induced response at -80 mV holding potential preincubated for 5 mins followed by Ach stimulation by two electrode voltage-clamp assay; format: cell-based, Oocyte
Rattus norvegicus [11] = test: Analgesic activity in Sprague-Dawley rat model of PNL injury-induced neuropathic pain assessed as pain threshold elevation percentage at 0.3 nmol/kg, IM administered as single dose measured after 2 to 2.5 hrs post dose; format: functional; details: time 2-2.5 hrs
[12] = molecular target: Voltage-dependent N-type calcium channel subunit alpha-1B (Rattus norvegicus) (UniProt Q02294); test: Inhibition of rat CaV2.2 channel expressed in HEK293T cells assessed as reduction in CaV2.2-mediated peak-current amplitude in response to depolarizing pulse at 10 uM by whole cell patch clamp assay relative to control; format: cell-based
[13] = molecular target: Neuronal acetylcholine receptor subunit alpha-7 (Rattus norvegicus) (UniProt Q05941); test: Inhibition of rat alpha7 nAChR expressed in Xenopus laevis oocytes assessed as inhibition of Ach-induced response at 10 uM at -80 mV holding potential preincubated for 5 mins followed by Ach stimulation by two electrode voltage-clamp assay relative to control; format: cell-based; details: Oocyte
[14] = molecular target: Neuronal acetylcholine receptor; alpha3/beta4 (Rattus norvegicus) (UniProt P04757+P12392); test: Inhibition of rat alpha3beta4 nAChR expressed in Xenopus laevis oocytes assessed as inhibition of Ach-induced response at 10 uM at -80 mV holding potential preincubated for 5 mins followed by Ach stimulation by two electrode voltage-clamp assay relative to control; format: cell-based; details: Oocyte
[15] = molecular target: Neuronal acetylcholine receptor; alpha3/beta2 (Rattus norvegicus) (UniProt P04757+P12390); test: Inhibition of rat alpha3beta2 nAChR expressed in Xenopus laevis oocytes assessed as inhibition of Ach-induced response at 10 uM at -80 mV holding potential preincubated for 5 mins followed by Ach stimulation by two electrode voltage-clamp assay relative to control; format: cell-based; details: Oocyte
[16] = molecular target: Neuronal acetylcholine receptor; alpha2/beta2 (Rattus norvegicus) (UniProt P12389+P12390); test: Inhibition of rat alpha2beta2 nAChR expressed in Xenopus laevis oocytes assessed as inhibition of Ach-induced response at 10 uM at -80 mV holding potential preincubated for 5 mins followed by Ach stimulation by two electrode voltage-clamp assay relative to control; format: cell-based; details: Oocyte
[17] = molecular target: T1, GABA-B receptor (Homo sapiens); test: Activation of human GABAB1/GABAB2 expressed in HEK293 cells co-transfected with rat CaV2.2 channel assessed as reduction in CaV2.2-mediated peak-current amplitude in response to depolarizing pulse at 1 nM in presence of with 10 uM baclofen by whole cell patch clamp assay relative to control; format: cell-based; details: HEK293T, filed as activator
[18] = molecular target: Neuronal acetylcholine receptor; alpha2/beta4 (Rattus norvegicus) (UniProt P12389+P12392); test: Inhibition of rat alpha2beta4 nAChR expressed in Xenopus laevis oocytes assessed as inhibition of Ach-induced response at 10 uM at -80 mV holding potential preincubated for 5 mins followed by Ach stimulation by two electrode voltage-clamp assay relative to control; format: cell-based; details: Oocyte
[19] = molecular target: Neuronal acetylcholine receptor; alpha4/beta2 (Rattus norvegicus) (UniProt P09483+P12390); test: Inhibition of rat alpha4beta2 nAChR expressed in Xenopus laevis oocytes assessed as inhibition of Ach-induced response at 10 uM at -80 mV holding potential preincubated for 5 mins followed by Ach stimulation by two electrode voltage-clamp assay relative to control; format: cell-based; details: Oocyte
Rattus norvegicus [20] = test: Analgesic activity in Sprague-Dawley rat model of PNL injury-induced neuropathic pain assessed as pain threshold elevation percentage at 0.3 to 15 nmol/kg, IM administered as single dose measured after 2 to 2.5 hrs post dose; format: functional, organism-based; details: dose 0.3-15 nmol/kg, time 2-2.5 hrs

Chain of Nicotinic acetylcholine receptor alpha9/alpha10 (P43144 whole entry): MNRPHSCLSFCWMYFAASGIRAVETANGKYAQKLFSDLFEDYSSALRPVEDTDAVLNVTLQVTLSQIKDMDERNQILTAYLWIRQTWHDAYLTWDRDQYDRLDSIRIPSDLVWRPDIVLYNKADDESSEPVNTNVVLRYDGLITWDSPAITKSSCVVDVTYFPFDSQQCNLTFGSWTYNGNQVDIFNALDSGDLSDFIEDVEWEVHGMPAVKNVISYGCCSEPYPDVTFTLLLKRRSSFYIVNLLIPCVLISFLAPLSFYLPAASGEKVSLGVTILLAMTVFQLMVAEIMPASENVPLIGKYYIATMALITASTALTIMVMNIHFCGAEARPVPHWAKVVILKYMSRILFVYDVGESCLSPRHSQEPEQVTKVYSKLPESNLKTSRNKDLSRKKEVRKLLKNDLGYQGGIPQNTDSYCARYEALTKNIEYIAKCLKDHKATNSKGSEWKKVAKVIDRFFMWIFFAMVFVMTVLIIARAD
Chain of Nicotinic acetylcholine receptor alpha9/alpha10 (Q9JLB5 whole entry): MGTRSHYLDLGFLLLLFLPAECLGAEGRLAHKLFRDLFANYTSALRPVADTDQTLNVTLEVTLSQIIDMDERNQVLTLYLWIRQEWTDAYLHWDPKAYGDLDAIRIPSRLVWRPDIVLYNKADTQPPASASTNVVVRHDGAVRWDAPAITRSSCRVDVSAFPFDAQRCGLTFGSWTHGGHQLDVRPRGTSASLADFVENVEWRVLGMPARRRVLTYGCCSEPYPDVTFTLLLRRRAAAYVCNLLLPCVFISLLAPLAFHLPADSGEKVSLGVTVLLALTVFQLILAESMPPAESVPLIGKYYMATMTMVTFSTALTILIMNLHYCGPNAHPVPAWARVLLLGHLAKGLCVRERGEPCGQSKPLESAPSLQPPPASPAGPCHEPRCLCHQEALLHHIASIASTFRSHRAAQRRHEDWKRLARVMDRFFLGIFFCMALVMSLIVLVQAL
Chain of Neuronal acetylcholine receptor; alpha9/alpha10 (Q9UGM1 whole entry): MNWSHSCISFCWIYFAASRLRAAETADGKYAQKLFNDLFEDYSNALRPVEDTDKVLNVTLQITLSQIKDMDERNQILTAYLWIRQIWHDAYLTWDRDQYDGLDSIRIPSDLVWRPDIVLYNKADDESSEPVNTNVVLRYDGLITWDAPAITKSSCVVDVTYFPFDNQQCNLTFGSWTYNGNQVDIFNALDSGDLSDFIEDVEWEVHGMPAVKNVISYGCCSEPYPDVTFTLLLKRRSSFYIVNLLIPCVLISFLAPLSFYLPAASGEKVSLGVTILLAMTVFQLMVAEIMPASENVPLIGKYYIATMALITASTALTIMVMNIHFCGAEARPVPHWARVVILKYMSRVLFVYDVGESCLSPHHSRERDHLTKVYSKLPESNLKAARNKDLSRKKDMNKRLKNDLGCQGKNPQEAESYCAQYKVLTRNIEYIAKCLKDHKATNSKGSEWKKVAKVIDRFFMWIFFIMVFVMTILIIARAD
Chain of Neuronal acetylcholine receptor; alpha9/alpha10 (Q9GZZ6 whole entry): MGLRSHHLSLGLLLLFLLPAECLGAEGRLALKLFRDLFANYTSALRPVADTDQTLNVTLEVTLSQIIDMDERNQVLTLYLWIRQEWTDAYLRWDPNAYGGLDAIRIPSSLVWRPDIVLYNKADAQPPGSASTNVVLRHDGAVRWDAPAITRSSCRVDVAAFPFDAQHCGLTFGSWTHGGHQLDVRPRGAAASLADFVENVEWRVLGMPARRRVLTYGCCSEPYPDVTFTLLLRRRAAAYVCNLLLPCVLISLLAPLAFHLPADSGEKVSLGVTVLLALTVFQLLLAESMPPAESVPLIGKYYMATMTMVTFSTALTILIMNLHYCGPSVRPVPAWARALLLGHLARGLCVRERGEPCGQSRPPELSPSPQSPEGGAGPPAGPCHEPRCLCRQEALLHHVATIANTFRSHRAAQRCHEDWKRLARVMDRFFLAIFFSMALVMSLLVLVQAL
Chain of GABA-B receptor (Q9UBS5 whole entry): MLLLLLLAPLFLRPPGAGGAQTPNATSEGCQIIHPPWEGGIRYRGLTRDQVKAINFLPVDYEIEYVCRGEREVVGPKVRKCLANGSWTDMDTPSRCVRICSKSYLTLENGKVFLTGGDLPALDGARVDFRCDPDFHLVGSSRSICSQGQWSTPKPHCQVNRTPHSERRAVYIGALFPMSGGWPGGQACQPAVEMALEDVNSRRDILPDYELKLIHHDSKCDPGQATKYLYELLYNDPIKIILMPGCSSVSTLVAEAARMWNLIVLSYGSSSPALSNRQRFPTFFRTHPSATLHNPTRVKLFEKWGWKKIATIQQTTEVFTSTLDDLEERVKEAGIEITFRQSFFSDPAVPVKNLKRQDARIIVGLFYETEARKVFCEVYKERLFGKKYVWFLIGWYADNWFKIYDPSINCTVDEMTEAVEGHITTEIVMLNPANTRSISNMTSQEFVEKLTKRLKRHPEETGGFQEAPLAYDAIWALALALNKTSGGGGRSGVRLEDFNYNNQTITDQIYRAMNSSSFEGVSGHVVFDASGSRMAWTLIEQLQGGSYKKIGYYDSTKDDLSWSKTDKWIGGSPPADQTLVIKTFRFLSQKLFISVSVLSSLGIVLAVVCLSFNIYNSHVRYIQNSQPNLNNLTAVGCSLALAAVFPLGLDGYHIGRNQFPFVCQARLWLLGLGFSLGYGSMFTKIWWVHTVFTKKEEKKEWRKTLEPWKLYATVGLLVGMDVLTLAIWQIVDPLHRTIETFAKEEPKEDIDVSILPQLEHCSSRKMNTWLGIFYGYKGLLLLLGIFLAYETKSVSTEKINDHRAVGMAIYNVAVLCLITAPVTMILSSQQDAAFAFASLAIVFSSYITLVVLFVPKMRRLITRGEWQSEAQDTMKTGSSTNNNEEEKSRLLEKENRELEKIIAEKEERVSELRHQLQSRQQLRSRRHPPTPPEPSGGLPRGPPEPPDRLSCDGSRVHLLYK
Chain of GABA-B receptor (O75899 whole entry): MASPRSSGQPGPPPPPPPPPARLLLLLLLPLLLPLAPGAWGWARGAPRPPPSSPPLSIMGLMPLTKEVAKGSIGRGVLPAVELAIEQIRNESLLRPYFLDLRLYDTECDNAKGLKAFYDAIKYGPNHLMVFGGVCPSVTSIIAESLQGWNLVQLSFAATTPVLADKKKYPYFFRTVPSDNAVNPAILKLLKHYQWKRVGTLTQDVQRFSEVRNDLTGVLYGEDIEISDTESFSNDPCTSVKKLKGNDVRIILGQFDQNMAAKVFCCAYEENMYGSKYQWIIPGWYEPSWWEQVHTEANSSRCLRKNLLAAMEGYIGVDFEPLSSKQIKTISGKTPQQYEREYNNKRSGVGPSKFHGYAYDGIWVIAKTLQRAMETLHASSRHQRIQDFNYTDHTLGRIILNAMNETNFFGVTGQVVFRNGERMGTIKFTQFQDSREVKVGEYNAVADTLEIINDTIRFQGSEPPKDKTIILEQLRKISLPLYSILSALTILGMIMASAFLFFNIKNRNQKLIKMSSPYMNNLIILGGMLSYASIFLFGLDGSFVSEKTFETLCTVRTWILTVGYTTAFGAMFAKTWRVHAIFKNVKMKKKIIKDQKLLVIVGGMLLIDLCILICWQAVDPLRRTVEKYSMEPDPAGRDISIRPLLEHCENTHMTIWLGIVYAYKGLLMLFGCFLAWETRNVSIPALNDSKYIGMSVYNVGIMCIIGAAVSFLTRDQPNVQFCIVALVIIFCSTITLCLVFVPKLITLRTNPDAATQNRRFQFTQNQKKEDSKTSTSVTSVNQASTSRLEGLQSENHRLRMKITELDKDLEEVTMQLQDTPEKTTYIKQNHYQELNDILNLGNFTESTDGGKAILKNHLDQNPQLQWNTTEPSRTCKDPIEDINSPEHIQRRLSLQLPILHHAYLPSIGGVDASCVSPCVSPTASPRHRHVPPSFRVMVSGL
Chain of Neuronal acetylcholine receptor subunit alpha-7 (Rattus norvegicus) (Q05941 whole entry): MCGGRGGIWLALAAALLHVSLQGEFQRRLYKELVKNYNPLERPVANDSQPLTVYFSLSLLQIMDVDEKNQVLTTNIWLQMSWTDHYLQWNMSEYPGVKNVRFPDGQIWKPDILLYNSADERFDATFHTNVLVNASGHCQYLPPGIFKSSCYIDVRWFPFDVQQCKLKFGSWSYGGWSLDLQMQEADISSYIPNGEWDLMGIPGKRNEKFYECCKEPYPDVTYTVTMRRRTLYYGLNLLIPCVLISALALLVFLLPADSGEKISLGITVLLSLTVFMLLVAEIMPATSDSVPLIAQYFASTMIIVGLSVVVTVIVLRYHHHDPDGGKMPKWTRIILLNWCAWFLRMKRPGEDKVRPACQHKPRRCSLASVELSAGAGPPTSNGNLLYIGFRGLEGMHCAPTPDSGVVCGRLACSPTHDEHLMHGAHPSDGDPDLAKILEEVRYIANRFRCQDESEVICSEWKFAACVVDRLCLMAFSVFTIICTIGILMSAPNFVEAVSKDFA

SMILES	inhibition (Neuron)	Activity (Rattus norvegicus [2]) [%]	IC50 (GABA-B receptor) [nM]	Ratio IC50 [3]	IC50 [4] [nM]	Activity [6]	inhibition [7] [%]	Ratio IC50 [8]	inhibition (Rattus norvegicus [9])	IC50 [10] [nM]	further results
CC[C@H](C)[C@H](NC(=O)[C@H](CCC(=O)O)NC(=O)[C@@H]1CCCN1C(=O)[C@H](Cc1cnc[nH]1)NC(=O)[C@H](CC(=O)O)NC(=O)[C@H](Cc1ccc(O)cc1)NC(=O)[C@H](CC(N)=O)NC(=O)[C@H](CS)NC(=O)[C@H](CCCNC(=N)N)NC(=O)[C@@H]1CCCN1C(=O)[C@H](CC(=O)O)NC(=O)[C@H](CO)NC(=O)[C@H](CS)NC(=O)[C@H](CS)NC(=O)CN)C(=O)N[C@@H](CS)C(N)=O	inactive	51.1	2.4	417	28.3	inactive	18.8	11.8	inactive	1000	Activity (Rattus norvegicus [1]): 25.6%; Activity (Rattus norvegicus [5]): Active; Activity (Rattus norvegicus [11]): 12.2%
CC[C@H](C)[C@H](NC(=O)[C@H](CCC(=O)O)NC(=O)[C@@H]1CCCN1C(=O)[C@H](Cc1cnc[nH]1)NC(=O)[C@H](CC(=O)O)NC(=O)[C@H](Cc1ccc(O)cc1)NC(=O)[C@H](CC(N)=O)NC(=O)[C@H](CS)NC(=O)[C@H](CCCNC(=N)N)NC(=O)[C@@H]1CCCN1C(=O)[C@H](CC(=O)O)NC(=O)[C@H](CO)NC(=O)[C@H](CS)NC(=O)[C@H](CS)NC(=O)CNC(=O)c1ccccc1)C(=O)N[C@@H](CS)C(N)=O	–	–	1.2	> 10000	–	–	–	–	–	12500	–
CC[C@H](C)[C@H](NC(=O)[C@H](CCC(=O)O)NC(=O)[C@@H]1CCCN1C(=O)[C@H](Cc1cnc[nH]1)NC(=O)[C@H](CC(=O)O)NC(=O)[C@H](Cc1ccc(O)cc1)NC(=O)[C@H](CCCNC(=N)N)NC(=O)[C@H](CS)NC(=O)[C@H](CCCNC(=N)N)NC(=O)[C@@H]1CCCN1C(=O)[C@H](CC(=O)O)NC(=O)[C@H](CO)NC(=O)[C@H](CS)NC(=O)[C@H](CS)NC(=O)CNC(C)=O)C(=O)N[C@@H](CS)C(N)=O (Ac-GCCSDPRCRYDHPEIC-NH2)	–	24.8	18.9	–	2420	–	–	128	–	–	–
CC[C@H](C)[C@H](NC(=O)[C@H](CCC(=O)O)NC(=O)[C@@H]1CCCN1C(=O)[C@H](Cc1cnc[nH]1)NC(=O)[C@H](CC(=O)O)NC(=O)[C@H](Cc1ccc(O)cc1)NC(=O)[C@H](CCCNC(=N)N)NC(=O)[C@H](CS)NC(=O)[C@H](CCCNC(=N)N)NC(=O)[C@@H]1CCCN1C(=O)[C@H](CC(=O)O)NC(=O)[C@H](CO)NC(=O)[C@H](CS)NC(=O)[C@H](CS)NC(=O)CNC(=O)c1ccccc1)C(=O)N[C@@H](CS)C(N)=O (Bz-GCCSDPRCRYDHPEIC-NH2)	inactive	80	0.2	> 25000	875	inactive	39.7	4380	inactive	5930	inhibition [12]: 2.2%; inhibition [13]: > 50%; inhibition [14]: > 50%; inhibition [15]: > 50%; inhibition [16]: > 50%; inhibition [17]: 67.4%; inhibition [18]: > 50%; inhibition [19]: > 50%
CC[C@H](C)[C@H](NC(=O)[C@H](CCC(=O)O)NC(=O)[C@@H]1CCCN1C(=O)[C@H](Cc1cnc[nH]1)NC(=O)[C@H](CC(=O)O)NC(=O)[C@H](Cc1ccc(O)cc1)NC(=O)[C@H](CCCNC(=N)N)NC(=O)[C@H](CS)NC(=O)[C@H](CCCNC(=N)N)NC(=O)[C@@H]1CCCN1C(=O)[C@H](CC(=O)O)NC(=O)[C@H](CO)NC(=O)[C@H](CS)NC(=O)[C@@H](N)CS)C(=O)N[C@@H](CS)C(N)=O (H-CCSDPRCRYDHPEIC-NH2)	–	32.5	23.2	–	–	–	–	–	–	–	–
CC[C@H](C)[C@H](NC(=O)[C@H](CCC(=O)O)NC(=O)[C@@H]1CCCN1C(=O)[C@H](Cc1cnc[nH]1)NC(=O)[C@H](CC(=O)O)NC(=O)[C@H](Cc1ccc(O)cc1)NC(=O)[C@H](CCCNC(=N)N)NC(=O)[C@H](CS)NC(=O)[C@H](CCCNC(=N)N)NC(=O)[C@@H]1CCCN1C(=O)[C@H](CC(=O)O)NC(=O)[C@H](CO)NC(=O)[C@H](CS)NC(=O)[C@H](CS)NC(=O)CN)C(=O)N[C@@H](CS)C(N)=O (H-GCCSDPRCRYDHPEIC-NH2)	inactive	85	4.9	74.1	4900	inactive	19.6	1000	inactive	363	Activity (Rattus norvegicus [1]): 47.2%; Activity (Rattus norvegicus [20]): Dose-dependent effect; inhibition [13]: > 50%; inhibition [14]: > 50%; Activity (Rattus norvegicus [5]): Active; inhibition [15]: > 50%; inhibition [16]: > 50%; inhibition [18]: > 50%; inhibition [19]: > 50%; Activity (Rattus norvegicus [11]): 16.7%
CC[C@H](C)[C@H](NC(=O)[C@H](CCC(=O)O)NC(=O)[C@@H]1CCCN1C(=O)[C@H](Cc1cnc[nH]1)NC(=O)[C@H](CC(N)=O)NC(=O)[C@H](Cc1ccc(O)cc1)NC(=O)[C@H](CCCNC(=N)N)NC(=O)[C@H](CS)NC(=O)[C@H](CCCNC(=N)N)NC(=O)[C@@H]1CCCN1C(=O)[C@H](CC(=O)O)NC(=O)[C@H](CO)NC(=O)[C@H](CS)NC(=O)[C@H](CS)NC(=O)CN)C(=O)N[C@@H](CS)C(N)=O (H-GCCSDPRCRYNHPEIC-NH2)	–	40.8	> 1000	–	13900	–	–	< 13.9	–	–	–
CC[C@H](C)[C@H](NC(=O)[C@H](CCC(=O)O)NC(=O)[C@@H]1CCCN1C(=O)[C@H](Cc1cnc[nH]1)NC(=O)[C@H](CCCNC(=N)N)NC(=O)[C@H](Cc1ccc(O)cc1)NC(=O)[C@H](CCCNC(=N)N)NC(=O)[C@H](CS)NC(=O)[C@H](CCCNC(=N)N)NC(=O)[C@@H]1CCCN1C(=O)[C@H](CC(=O)O)NC(=O)[C@H](CO)NC(=O)[C@H](CS)NC(=O)[C@H](CS)NC(=O)CN)C(=O)N[C@@H](CS)C(N)=O (H-GCCSDPRCRYRHPEIC-NH2)	–	35.3	> 1000	–	–	–	–	–	–	–	–
CC[C@H](C)[C@H](NC(=O)[C@H](CCC(=O)O)NC(=O)[C@@H]1CCCN1C(=O)[C@H](Cc1cnc[nH]1)NC(=O)[C@H](CO)NC(=O)[C@H](Cc1ccc(O)cc1)NC(=O)[C@H](CCCNC(=N)N)NC(=O)[C@H](CS)NC(=O)[C@H](CCCNC(=N)N)NC(=O)[C@@H]1CCCN1C(=O)[C@H](CC(=O)O)NC(=O)[C@H](CO)NC(=O)[C@H](CS)NC(=O)[C@H](CS)NC(=O)CN)C(=O)N[C@@H](CS)C(N)=O (H-GCCSDPRCRYSHPEIC-NH2)	–	9	18.6	–	–	–	–	–	–	–	–
